Measurements as given in patent US4812483A, “Insecticidal alkenes” (Imperial Chemical Industries PLC, priority 1985, dated 1989).

Columns and labels:
Format in all cases: in vivo
[1] = system: Tetranychus urticae (red spider mites - adult); test: Contact test, mortality of red spider mites (TU); conditions: 72 h, French bean leaf, 3 days, read-out: grading of mortality, TU
Method: (§1) The activity of the compound was determined using a variety of insect pests. The compound was used in the form of liquid preparations containing 500 parts per million (ppm) by weight of the compound. The preparations were made by dissolving the compound in acetone and diluting the solutions with water containing 0.01% by weight of a wetting agent sold under the trade name "LISSAPOL" NX until the liquid preparations contained the required concentration of the compound. "Lissapol" is a Registered Trade Mark.
(§2) The test procedure adopted with regard to each pest was basically the same and comprised supporting a number of the pests on a medium which was usually a host plant or a foodstuff on which the pests feed, and treating either or both the pests and the medium with the preparations. The mortality of the pests was then assessed at periods usually varying from one to three days after the treatment.
(§3) The results of the tests are given in Table III for each of the compounds, at the rate in parts per million given in the second column as a grading of mortality designated as A, B or C wherein A indicates 80-100% mortality or knockdown, B indicates 50-79% mortality or knockdown and C indicates less than 50% mortality or knockdown.
(§4) In Table III the pest organism used is designated by a letter code and the pests species, the support medium or food, and the type and duration of test is given in Table II.
(red spider mites - adult)

Myzus persicae (aphids) = test: Contact test, mortality of aphids (MP); conditions: 48 h, leaf, 2 days, read-out: grading of mortality, MP
Method: as §1, §2, §3, §4

[2] = system: Nilaparvata lugens (green leaf hopper); test: Contact test, mortality of Nilaparvata lugens (NL); conditions: 144 h, cabbage leaf, 6 days, read-out: grading of mortality, NL
Method: as §1, §2, §3, §4

[3] = system: Musca domestica (houseflies - adults); test: Contact test, mortality of houseflies (MD); conditions: 24 h, cotton wool/sugar, 1 day, read-out: grading of mortality, MD
Method: as §1, §2, §3, §4

[4] = system: Blattella germanica (cockroach nymphs); test: Residual test, mortality of cockroach nymphs (BG); conditions: 72 h, plastic pot, 3 days, read-out: grading of mortality, BG
Method: as §1, §2, §3, §4

[5] = system: Heliothis viriscens (tobacco budworm); test: whole plant or invertebrate; conditions: in Gossypium hirsutum, 72 h, read-out: grading of mortality, HV
Method: as §1, §2, §3, §4

[6] = system: Chilo partellurs (Stem borers); test: Residual test, mortality of stem borers (CP); conditions: 72 h, oil seed rape leaf, 3 days, read-out: grading of mortality, CP
Method: as §1, §2, §3, §4

[7] = system: Diabrotica balteata (rootworm larvae); test: Residual test, mortality of rootworm larvae (DB); conditions: 72 h, filter paper/maize seed, 3 days, read-out: grading of mortality, DB
Method: as §1, §2, §3, §4

Compound | mortality at 500 ppm [1] [%] | mortality at 500 ppm (Myzus persicae (aphids)) [%] | mortality at 500 ppm [2] [%] | mortality at 500 ppm [3] [%] | mortality at 500 ppm [4] [%] | mortality at 500 ppm [5] [%] | mortality at 500 ppm [6] [%] | mortality at 500 ppm [7] [%]
C=CC1(COCc2cccc(Oc3ccccc3)c2)CC1 [Compound 6, 1-(3-phenoxybenzyloxymethyl)-1-vinylcyclopropane] | < 50 | < 50 | 50 to 79 | < 50 | < 50 | < 50 | < 50 | < 50
CC(C)(C=C(F)F)COCc1ccc(F)c(Cc2ccccc2)c1 [Compound 18] | 50 to 79 | < 50 | 80 to 100 |  | 80 to 100 | 80 to 100 |  | 80 to 100
CC(C)(C=C(Cl)Cl)COCc1ccc(F)c(Cc2ccccc2)c1 [Compound 20, 2,2-dimethyl-1-(3-benzyl-4-fluorobenzyloxy)-4,4-dichlorobut-3-ene] | < 50 | < 50 | 80 to 100 |  | < 50 | < 50 |  | < 50
CC(C)(C=C(F)Cl)COCc1cccc(Oc2ccccc2)n1 [Compound 19, E,Z-2,2-dimethyl-1-(6-phenoxypyrid-2-yl)methoxy-4-chloro-4-fluorobut-3-ene] | 50 to 79 | 50 to 79 | 80 to 100 |  | 50 to 79 | < 50 |  | 80 to 100
CC(C)(C=C(Cl)Cl)COCc1cccc(Oc2ccccc2)n1 [Compound 13, 2,2-dimethyl-1-(6-phenoxypyrid-2-yl)methoxy-4,4-dichlorobut-3-ene] | < 50 | 50 to 79 | 80 to 100 | 50 to 79 | 80 to 100 | 80 to 100 |  | 80 to 100
CC(C)(C=C(F)F)COCc1cccc(Oc2ccccc2)c1 [Compound 17] | < 50 | < 50 | 80 to 100 |  | 80 to 100 | < 50 |  | 80 to 100
CC(C)(C=CCl)COCc1cccc(Oc2ccccc2)c1 [Compound 10, 2,2-dimethyl-1-(3-phenoxybenzyloxy)-4-chlorobut-3-ene] | < 50 | < 50 | 80 to 100 | 50 to 79 | < 50 |  | < 50 | 80 to 100
C=CC(C)(C)COCc1ccc(F)c(Oc2ccccc2)c1 [Compound 5, 3,3-dimethyl-4-(4-fluoro-3-phenoxybenzyloxy)but-1-ene] | 80 to 100 | 80 to 100 | 80 to 100 | 80 to 100 | 80 to 100 | < 50 |  | 80 to 100
C=CC(C)(CC)COCc1cccc(Oc2ccccc2)c1 (stereo not shown) [Compound 8, 3-Ethyl-3-methyl-4(3-phenoxybenzyloxy)but-1-ene] | 80 to 100 | < 50 | 80 to 100 | 80 to 100 | < 50 | < 50 |  | 80 to 100
C=CC(C)(C)COCc1cccc(Oc2ccccc2)c1 [Compound 2, 3,3-Dimethyl-4-(3-phenoxybenzyloxy)but-1-ene] |  | < 50 | 80 to 100 | 80 to 100 | < 50 | < 50 |  | 80 to 100
CC(C)(C=C(F)Cl)COCc1cccc(Oc2ccccc2)c1 [Compound 11, Z,E-2,2-dimethyl-1-(3-phenoxybenzyloxy)-4-chloro-4-fluorobut-3-ene] | < 50 | < 50 | 80 to 100 | 50 to 79 | 50 to 79 | 50 to 79 |  | 80 to 100
CC(C)(C=C(Cl)Cl)COCc1ccc(F)c(Oc2ccccc2)c1 [Compound 1, 2,2-dimethyl-1-(4-fluoro-3-phenoxybenzyloxy)-4,4-dichlorobut-3-ene] |  | < 50 | 80 to 100 | 80 to 100 | 80 to 100 | 80 to 100 | 80 to 100 | 80 to 100
CC(C)(C=C(F)F)COCc1cccc(Oc2ccccc2)n1 [Compound 16, 2,2-dimethyl-1-(6-phenoxypyrid-2-yl)methoxy-1,1-difluorobut-1-ene] | 80 to 100 | 80 to 100 | 80 to 100 |  | 80 to 100 | 80 to 100 |  | 80 to 100
CC(C)(C=C(Br)Br)COCc1cccc(Oc2ccccc2)c1 [Compound 3, 2,2-dimethyl-1-(3-phenoxybenzyloxy)-4,4-dibromobut-3-ene] |  | < 50 | 50 to 79 | < 50 | < 50 | < 50 | 80 to 100 | < 50
CC(C)(/C=C/Br)COCc1cccc(Oc2ccccc2)c1 [Compound 7, E-2,2-dimethyl-1-(3-phenoxybenzyloxy)-4-bromobut-3-ene] | < 50 | < 50 | 50 to 79 | < 50 | < 50 | < 50 | < 50 | < 50
CC(C)(C=C(F)F)COCc1ccc(F)c(Oc2ccccc2)c1 [Compound 15, 2,2-dimethyl-1-(4-fluoro-3-phenoxybenzyloxy)-4,4-difluorobut-3-ene] | 80 to 100 | 80 to 100 | 80 to 100 | 80 to 100 | 80 to 100 | 80 to 100 |  | 80 to 100
ClC(Cl)=CC1(COCc2cccc(Oc3ccccc3)c2)CC1 [Compound 9, 1-(2,2-dichlorovinyl)-1-(3-phenoxybenzyloxymethyl)cyclopropane] | < 50 | 80 to 100 | 80 to 100 | 80 to 100 | 50 to 79 | < 50 |  | 50 to 79
CC(C)(C=C(Cl)Cl)COCc1cccc(Oc2ccccc2)c1 [Compound 4, 2,2-dimethyl-1-(3-phenoxybenzyloxy)-4,4-dichlorobut-3-ene] | < 50 | < 50 | 80 to 100 | < 50 | < 50 | < 50 |  | < 50
C=CC(C)(C)COCc1ccc(F)c(Cc2ccccc2)c1 [Compound 14, 3,3-Dimethyl-4-(3-benzyl-4-fluorobenzyloxy)but-1-ene] | < 50 | < 50 | 80 to 100 | 80 to 100 | 50 to 79 | < 50 |  | 80 to 100
C=CC(C)(C)COCc1cccc(Oc2ccccc2)n1 [Compound 12, 3,3-Dimethyl-4-(6-phenoxypyrid-2-yl)methoxy-but-1-ene] | < 50 | < 50 | 80 to 100 | < 50 | < 50 | < 50 |  | 80 to 100
